Read-outs that look alike come from different tables or passages of the source. Starred links: 1 amine or outer side, 2 acyl side, 3 side chain; linkers in the order of their positions; H or OH if unused. Non-standard residues stand in square brackets, D forms with d. Residues, ends and D or L forms follow the SMILES beside them. *: point of attachment. N(1S-cyclohexylethyl)Gly = C[C@H](NCC(=O)O)C1CCCCC1; Gly(N-CH2CH2C6H4-4Cl) = O=C(O)CNCCc1ccc(Cl)cc1; NMeGly(N-(2-F-benzyl)) = CN(CC(=O)*)Cc1ccccc1F; Acetyl(2-(piperazin-1-yl)) = O=C(CN1CCNCC1)*; Hydrazinoacetyl = O=C(CNN[*:1])[*:2]; Gly(Nα-NHCO2Et) = CCOC(=O)NNCC(=O)O; Nrpe = C[C@@H](NCC(=O)O)c1ccccc1; Nspe = C[C@H](NCC(=O)O)c1ccccc1; X1 = O=C(CN1CCN([*:1])CC1)[*:2]; Ethoxycarbonyl = CCOC(=O)*; Nphe = O=C(O)CNCc1ccccc1; X5 = NC(=O)CN1CCN(*)CC1; X3 = O=C(CN1CCCNCC1)*
Experiment: General method for water solubility test (gradual addition of water to 1 mg peptoid until clear)
Type: physicochemical
Protocol: 1 mg peptoid was placed in an Eppendorf container and water was added gradually (e.g., […] per addition) until a clear solution was obtained. The solubility test was repeated three times and average values are presented. The limit of the test was typically 2.0×10^2 mg/liter (i.e., 1 mg per 5 ml).
Water solubility tests were carried out by a gradual addition of 5 μl distilled water to 1 mg peptoid until a clear solution was obtained. This assay was repeated three times and results were averaged.

[1] = water, average of three tests, limit of test 2.0×10^2 mg/liter, read-out: Water solubility

solubility	Structure (SMILES)	other results
< 0.2 mg/mL	C[C@H](NCC(=O)N(CC(=O)N(CC(=O)N(CC(=O)N(CC(=O)N(CC(N)=O)[C@@H](C)c1ccccc1)[C@@H](C)c1ccccc1)[C@@H](C)c1ccccc1)[C@@H](C)c1ccccc1)[C@@H](C)c1ccccc1)c1ccccc1 [Peptoid P1, (Nspe)6, reference compound] (H-[Nspe][Nspe][Nspe][Nspe][Nspe][Nspe]-NH2)	
~900 µM	C[C@H](NCC(=O)N(CC(=O)N(CC(=O)N(CC(=O)N(CC(=O)N(CC(=O)N1CCN(CC(N)=O)CC1)[C@@H](C)c1ccccc1)[C@@H](C)c1ccccc1)[C@@H](C)c1ccccc1)[C@@H](C)c1ccccc1)[C@@H](C)c1ccccc1)c1ccccc1 [Peptoid P3, Npz-(Nspe)6] (H-[Nspe][Nspe][Nspe][Nspe][Nspe][Nspe]-X5)	
~700 µM	C[C@@H](c1ccccc1)N1CC(=O)N(CC(N)=O)CCCN2CCN(CC2)CC(=O)N([C@@H](C)c2ccccc2)CC(=O)N([C@@H](C)c2ccccc2)CC(=O)N([C@@H](C)c2ccccc2)CC(=O)N([C@@H](C)c2ccccc2)CC(=O)N([C@@H](C)c2ccccc2)CC1=O [Peptoid P4, Npl-(Nspe)6-Npz (cyclic)]	
	C[C@@H](c1ccccc1)N(CC(N)=O)C(=O)CN(C(=O)CN(C(=O)CN(C(=O)CN(C(=O)CN(C(=O)CN1CCN(C(=O)CN2CCN(C(=O)CN3CCNCC3)CC2)CC1)[C@@H](C)c1ccccc1)[C@@H](C)c1ccccc1)[C@@H](C)c1ccccc1)[C@@H](C)c1ccccc1)[C@@H](C)c1ccccc1 [Peptoid P6, (Nspe)6-(Npz)3] ({Acetyl(2-(piperazin-1-yl))}-[X1][X1][Nspe][Nspe][Nspe][Nspe][Nspe][Nspe]-NH2)	Water solubility at pH 10.5 (in words) (pH 10.5): highly soluble; Water solubility relative to that of P2 at pH 10.5 (pH 10.5): 106 times; solubility [1]: 88.6 mg/mL
49.6 mg/mL	C[C@@H](c1ccccc1)N(CC(N)=O)C(=O)CN(C(=O)CN(C(=O)CN(C(=O)CN(C(=O)CN(C(=O)CN1CCCNCC1)[C@@H](C)c1ccccc1)[C@@H](C)c1ccccc1)[C@@H](C)c1ccccc1)[C@@H](C)c1ccccc1)[C@@H](C)c1ccccc1 [Peptoid P7, (Nspe)6-Nhpz] (X3-[Nspe][Nspe][Nspe][Nspe][Nspe][Nspe]-NH2)	Water solubility relative to that of P2: about 50 times
< 0.2 mg/mL	C[C@H](NCC(=O)N(CC(=O)N(CC(=O)N(CC(N)=O)[C@@H](C)c1cccc2ccccc12)[C@@H](C)c1cccc2ccccc12)[C@@H](C)c1cccc2ccccc12)c1cccc2ccccc12 [Peptoid P9, (Ns1npe)4, reference compound]	
< 0.2 mg/mL	C[C@H](NCC(=O)N(CC(=O)N(CC(=O)N(CC(=O)N(CC(N)=O)[C@@H](C)C1CCCCC1)[C@@H](C)C1CCCCC1)[C@@H](C)C1CCCCC1)[C@@H](C)C1CCCCC1)C1CCCCC1 [Peptoid P10, (Nsch)5, reference compound]	
< 0.2 mg/mL	C[C@@H](C1CCCCC1)N(CC(=O)N(CCc1ccc(Cl)cc1)CC(=O)N(CC(=O)N(CC(=O)N(CC(N)=O)Cc1ccccc1)Cc1ccccc1)[C@@H](C)C1CCCCC1)C(=O)CN(C)Cc1ccccc1F [Peptoid P11, (Npm)2-Nsch-Ncpe-Nsch-Nfpm, reference compound] ({NMeGly(N-(2-F-benzyl))}-[N(1S-cyclohexylethyl)Gly][Gly(N-CH2CH2C6H4-4Cl)][N(1S-cyclohexylethyl)Gly][Nphe][Nphe]-NH2)	
< 0.2 mg/mL	C[C@@H](c1cccc2ccccc12)N(CC(N)=O)C(=O)CN(C(=O)CN(C(=O)CN(C(=O)CN1CCNCC1)[C@@H](C)c1cccc2ccccc12)[C@@H](C)c1cccc2ccccc12)[C@@H](C)c1cccc2ccccc12 [Peptoid P12, (Ns1npe)4-Npz]	
< 0.2 mg/mL	C[C@H](NCC(=O)N(CC(=O)N(CC(=O)N(CC(=O)N1CCN(CC(N)=O)CC1)[C@@H](C)c1cccc2ccccc12)[C@@H](C)c1cccc2ccccc12)[C@@H](C)c1cccc2ccccc12)c1cccc2ccccc12 [Peptoid P13, Npz-(Ns1npe)4]	
< 0.2 mg/mL	C[C@@H](c1cccc2ccccc12)N(CC(N)=O)C(=O)CN(C(=O)CN(C(=O)CN(C(=O)CN1CCCNCC1)[C@@H](C)c1cccc2ccccc12)[C@@H](C)c1cccc2ccccc12)[C@@H](C)c1cccc2ccccc12 [Peptoid P14, (Ns1npe)4-Nhpz]	
< 0.2 mg/mL	C[C@@H](C1CCCCC1)N(CC(N)=O)C(=O)CN(C(=O)CN(C(=O)CN(C(=O)CN(C(=O)CN1CCNCC1)[C@@H](C)C1CCCCC1)[C@@H](C)C1CCCCC1)[C@@H](C)C1CCCCC1)[C@@H](C)C1CCCCC1 [Peptoid P15, (Nsch)5-Npz]	
< 0.2 mg/mL	C[C@@H](C1CCCCC1)N(CC(N)=O)C(=O)CN(C(=O)CN(C(=O)CN(C(=O)CN(C(=O)CN1CCCNCC1)[C@@H](C)C1CCCCC1)[C@@H](C)C1CCCCC1)[C@@H](C)C1CCCCC1)[C@@H](C)C1CCCCC1 [Peptoid P16, (Nsch)5-Nhpz]	
< 0.2 mg/mL	C[C@@H](C1CCCCC1)N(CC(=O)N(CCc1ccc(Cl)cc1)CC(=O)N(CC(=O)N(CC(=O)N(CC(=O)N1CCN(CC(N)=O)CC1)Cc1ccccc1)Cc1ccccc1)[C@@H](C)C1CCCCC1)C(=O)CN(C)Cc1ccccc1F [Peptoid P17, Npz-(Npm)2-Nsch-Ncpe-Nsch-Nfpm] ({NMeGly(N-(2-F-benzyl))}-[N(1S-cyclohexylethyl)Gly][Gly(N-CH2CH2C6H4-4Cl)][N(1S-cyclohexylethyl)Gly][Nphe][Nphe]-X5)	
7.52 mg/mL	C[C@@H](C1CCCCC1)N(CC(N)=O)C(=O)CN(C(=O)CN(C(=O)CN(C(=O)CN(C(=O)CN1CCN(C(=O)CN2CCNCC2)CC1)[C@@H](C)C1CCCCC1)[C@@H](C)C1CCCCC1)[C@@H](C)C1CCCCC1)[C@@H](C)C1CCCCC1 [Peptoid P19, (Nsch)5-(Npz)2] ({Acetyl(2-(piperazin-1-yl))}-[X1][N(1S-cyclohexylethyl)Gly][N(1S-cyclohexylethyl)Gly][N(1S-cyclohexylethyl)Gly][N(1S-cyclohexylethyl)Gly][N(1S-cyclohexylethyl)Gly]-NH2)	
84.4 mg/mL	C[C@@H](C1CCCCC1)N(CC(=O)N(CCc1ccc(Cl)cc1)CC(=O)N(CC(=O)N(CC(=O)N(CC(=O)N1CCN(CC(=O)N2CCN(CC(N)=O)CC2)CC1)Cc1ccccc1)Cc1ccccc1)[C@@H](C)C1CCCCC1)C(=O)CN(C)Cc1ccccc1F [Peptoid P20, (Npz)2-(Npm)2-Nsch-Ncpe-Nsch-Nfpm] ({NMeGly(N-(2-F-benzyl))}-[N(1S-cyclohexylethyl)Gly][Gly(N-CH2CH2C6H4-4Cl)][N(1S-cyclohexylethyl)Gly][Nphe][Nphe][X1]-X5)	
73.5 mg/mL	C[C@@H](C1CCCCC1)N(CC(N)=O)C(=O)CN(C(=O)CN(C(=O)CN(C(=O)CN(C(=O)CN1CCN(C(=O)CN2CCN(C(=O)CN3CCNCC3)CC2)CC1)[C@@H](C)C1CCCCC1)[C@@H](C)C1CCCCC1)[C@@H](C)C1CCCCC1)[C@@H](C)C1CCCCC1 [Peptoid P22, (Nsch)5-(Npz)3] ({Acetyl(2-(piperazin-1-yl))}-[X1][X1][N(1S-cyclohexylethyl)Gly][N(1S-cyclohexylethyl)Gly][N(1S-cyclohexylethyl)Gly][N(1S-cyclohexylethyl)Gly][N(1S-cyclohexylethyl)Gly]-NH2)	
135 mg/mL	C[C@@H](C1CCCCC1)N(CC(=O)N(CCc1ccc(Cl)cc1)CC(=O)N(CC(=O)N(CC(=O)N(CC(=O)N1CCN(CC(=O)N2CCN(CC(=O)N3CCN(CC(N)=O)CC3)CC2)CC1)Cc1ccccc1)Cc1ccccc1)[C@@H](C)C1CCCCC1)C(=O)CN(C)Cc1ccccc1F [Peptoid P23, (Npz)3-(Npm)2-Nsch-Ncpe-Nsch-Nfpm] ({NMeGly(N-(2-F-benzyl))}-[N(1S-cyclohexylethyl)Gly][Gly(N-CH2CH2C6H4-4Cl)][N(1S-cyclohexylethyl)Gly][Nphe][Nphe][X1][X1]-X5)	
< 0.2 mg/mL	C[C@H](c1ccccc1)N(CCC(N)=O)C(=O)CCN(C(=O)CCN(C(=O)CCN(C(=O)CCN(C(=O)CCN[C@H](C)c1ccccc1)[C@H](C)c1ccccc1)[C@H](C)c1ccccc1)[C@H](C)c1ccccc1)[C@H](C)c1ccccc1 [Peptoid P24, reference compound]	
< 0.2 mg/mL	C[C@H](c1ccccc1)N(CCC(N)=O)C(=O)CCN(C(=O)CCN(C(=O)CCN(C(=O)CCN(C(=O)CCN(C(=O)CN1CCNCC1)[C@H](C)c1ccccc1)[C@H](C)c1ccccc1)[C@H](C)c1ccccc1)[C@H](C)c1ccccc1)[C@H](C)c1ccccc1 [Peptoid P25]	
103 mg/mL	C[C@H](c1ccccc1)N(CCC(N)=O)C(=O)CCN(C(=O)CCN(C(=O)CCN(C(=O)CCN(C(=O)CCN(C(=O)CN1CCN(C(=O)CN2CCNCC2)CC1)[C@H](C)c1ccccc1)[C@H](C)c1ccccc1)[C@H](C)c1ccccc1)[C@H](C)c1ccccc1)[C@H](C)c1ccccc1 [Peptoid P26]	
	C[C@H](c1ccccc1)N(CCC(N)=O)C(=O)CCN(C(=O)CCN(C(=O)CCN(C(=O)CCN(C(=O)CCN(C(=O)CN1CCN(C(=O)CN2CCN(C(=O)CN3CCNCC3)CC2)CC1)[C@H](C)c1ccccc1)[C@H](C)c1ccccc1)[C@H](C)c1ccccc1)[C@H](C)c1ccccc1)[C@H](C)c1ccccc1 [Peptoid P27]	solubility [1]: 196 mg/mL
< 0.2 mg/mL	CCOC(=O)NNCC(=O)N(CC(=O)N(CC(=O)N(CC(=O)N(CC(=O)N(CC(N)=O)[C@H](C)c1ccccc1)NC(=O)OCC)[C@H](C)c1ccccc1)NC(=O)OCC)[C@H](C)c1ccccc1 [Peptoid P28, reference compound] (Ethoxycarbonyl-[Hydrazinoacetyl][Nrpe][Gly(Nα-NHCO2Et)][Nrpe][Gly(Nα-NHCO2Et)][Nrpe]-NH2)	
50.6 mg/mL	CCOC(=O)NN(CC(=O)N(CC(N)=O)[C@H](C)c1ccccc1)C(=O)CN(C(=O)CN(NC(=O)OCC)C(=O)CN(C(=O)CN(NC(=O)OCC)C(=O)CN1CCNCC1)[C@H](C)c1ccccc1)[C@H](C)c1ccccc1 [Peptoid P29] ({Acetyl(2-(piperazin-1-yl))}-[Gly(Nα-NHCO2Et)][Nrpe][Gly(Nα-NHCO2Et)][Nrpe][Gly(Nα-NHCO2Et)][Nrpe]-NH2)	

— patent US20200055897A1, “MODIFIED PEPTOIDS” (Technion Research & Development Foundation Limited, priority 2017, published 2020)
